Experimental findings from patent US20050282743A1, “Molecular interactions in cells” (Arbor Vita Corporation, priority 2001, published 2005) are described below.

Ends that are not written are not given here. Peptide text beside a SMILES is read from it. * marks the point of attachment. Biotin = O=C1N[C@H]2[C@H](CS[C@H]2CCCCC(=O)*)N1

Holding throughout (experiment): G' assay (10 uM PL peptide), results of TABLE 7 and TABLE 12
Assay type in all cases: binding

Test [1] concerns the target T1, PDZ protein (GST-PDZ fusion) (Homo sapiens, UniProt Q12923).
T1 construct: made in house; host or cells: E. coli (DH5alpha, BL21 or JM109)
The essentials: (§1)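 Same steps as the G-zero format, apart from a peptide concentration of 10 uM in place of 20 uM in step 2. Amino-terminally biotinylated PL peptides bind GST-PDZ fusions, and retained peptide is quantified by 450 nm absorbance.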

Test [2] addresses T2, PDZ protein (GST-PDZ fusion) (Homo sapiens, UniProt Q5TCQ9).
T2 construct: made in house; host or cells: E. coli (DH5alpha, BL21 or JM109)
T2 sequence (Q5TCQ9 1-1481): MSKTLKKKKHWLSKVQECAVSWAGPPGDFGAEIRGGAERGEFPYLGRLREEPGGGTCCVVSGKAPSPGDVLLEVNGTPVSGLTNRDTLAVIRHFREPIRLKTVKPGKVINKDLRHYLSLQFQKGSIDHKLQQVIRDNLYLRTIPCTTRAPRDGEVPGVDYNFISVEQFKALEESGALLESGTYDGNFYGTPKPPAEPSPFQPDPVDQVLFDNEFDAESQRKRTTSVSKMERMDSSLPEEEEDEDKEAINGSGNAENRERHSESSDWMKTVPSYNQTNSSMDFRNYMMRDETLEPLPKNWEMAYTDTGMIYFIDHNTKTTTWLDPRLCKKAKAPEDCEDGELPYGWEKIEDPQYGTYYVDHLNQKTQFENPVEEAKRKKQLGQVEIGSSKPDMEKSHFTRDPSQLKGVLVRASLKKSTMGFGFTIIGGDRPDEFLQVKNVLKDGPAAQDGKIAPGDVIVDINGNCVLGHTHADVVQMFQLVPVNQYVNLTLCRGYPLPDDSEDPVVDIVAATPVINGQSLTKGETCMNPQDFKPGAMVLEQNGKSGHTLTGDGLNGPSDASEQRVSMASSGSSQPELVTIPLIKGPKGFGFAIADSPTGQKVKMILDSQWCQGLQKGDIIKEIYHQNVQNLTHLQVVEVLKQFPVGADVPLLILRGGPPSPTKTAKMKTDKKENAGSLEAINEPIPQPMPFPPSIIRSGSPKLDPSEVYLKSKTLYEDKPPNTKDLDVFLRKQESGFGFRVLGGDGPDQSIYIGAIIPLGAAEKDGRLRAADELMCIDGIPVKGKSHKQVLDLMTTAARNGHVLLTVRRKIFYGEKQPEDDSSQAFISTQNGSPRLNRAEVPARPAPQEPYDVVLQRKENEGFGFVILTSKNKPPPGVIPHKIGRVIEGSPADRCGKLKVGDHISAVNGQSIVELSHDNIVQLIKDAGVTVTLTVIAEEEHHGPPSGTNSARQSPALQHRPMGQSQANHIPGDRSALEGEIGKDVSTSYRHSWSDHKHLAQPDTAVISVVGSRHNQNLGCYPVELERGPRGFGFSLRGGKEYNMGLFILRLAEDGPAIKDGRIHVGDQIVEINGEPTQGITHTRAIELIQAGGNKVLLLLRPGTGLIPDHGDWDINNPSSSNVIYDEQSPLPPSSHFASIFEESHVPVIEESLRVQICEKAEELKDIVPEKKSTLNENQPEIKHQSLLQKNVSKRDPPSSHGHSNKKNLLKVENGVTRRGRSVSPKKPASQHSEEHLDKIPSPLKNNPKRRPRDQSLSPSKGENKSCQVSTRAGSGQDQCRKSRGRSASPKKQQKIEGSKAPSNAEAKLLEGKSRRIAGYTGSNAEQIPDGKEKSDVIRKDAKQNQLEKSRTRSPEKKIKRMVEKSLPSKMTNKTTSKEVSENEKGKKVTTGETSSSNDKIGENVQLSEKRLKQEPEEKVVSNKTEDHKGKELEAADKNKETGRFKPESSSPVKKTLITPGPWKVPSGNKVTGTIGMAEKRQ
The procedure, abridged: as §1

Test [3] has as its system PDZ protein (GST-PDZ fusion). The essentials:
as §1

Setting [4] is: PDZ HEMBA 1003117, PDZ Domain 1.

T1 sequence (Q12923 whole entry, the tested form may be a part): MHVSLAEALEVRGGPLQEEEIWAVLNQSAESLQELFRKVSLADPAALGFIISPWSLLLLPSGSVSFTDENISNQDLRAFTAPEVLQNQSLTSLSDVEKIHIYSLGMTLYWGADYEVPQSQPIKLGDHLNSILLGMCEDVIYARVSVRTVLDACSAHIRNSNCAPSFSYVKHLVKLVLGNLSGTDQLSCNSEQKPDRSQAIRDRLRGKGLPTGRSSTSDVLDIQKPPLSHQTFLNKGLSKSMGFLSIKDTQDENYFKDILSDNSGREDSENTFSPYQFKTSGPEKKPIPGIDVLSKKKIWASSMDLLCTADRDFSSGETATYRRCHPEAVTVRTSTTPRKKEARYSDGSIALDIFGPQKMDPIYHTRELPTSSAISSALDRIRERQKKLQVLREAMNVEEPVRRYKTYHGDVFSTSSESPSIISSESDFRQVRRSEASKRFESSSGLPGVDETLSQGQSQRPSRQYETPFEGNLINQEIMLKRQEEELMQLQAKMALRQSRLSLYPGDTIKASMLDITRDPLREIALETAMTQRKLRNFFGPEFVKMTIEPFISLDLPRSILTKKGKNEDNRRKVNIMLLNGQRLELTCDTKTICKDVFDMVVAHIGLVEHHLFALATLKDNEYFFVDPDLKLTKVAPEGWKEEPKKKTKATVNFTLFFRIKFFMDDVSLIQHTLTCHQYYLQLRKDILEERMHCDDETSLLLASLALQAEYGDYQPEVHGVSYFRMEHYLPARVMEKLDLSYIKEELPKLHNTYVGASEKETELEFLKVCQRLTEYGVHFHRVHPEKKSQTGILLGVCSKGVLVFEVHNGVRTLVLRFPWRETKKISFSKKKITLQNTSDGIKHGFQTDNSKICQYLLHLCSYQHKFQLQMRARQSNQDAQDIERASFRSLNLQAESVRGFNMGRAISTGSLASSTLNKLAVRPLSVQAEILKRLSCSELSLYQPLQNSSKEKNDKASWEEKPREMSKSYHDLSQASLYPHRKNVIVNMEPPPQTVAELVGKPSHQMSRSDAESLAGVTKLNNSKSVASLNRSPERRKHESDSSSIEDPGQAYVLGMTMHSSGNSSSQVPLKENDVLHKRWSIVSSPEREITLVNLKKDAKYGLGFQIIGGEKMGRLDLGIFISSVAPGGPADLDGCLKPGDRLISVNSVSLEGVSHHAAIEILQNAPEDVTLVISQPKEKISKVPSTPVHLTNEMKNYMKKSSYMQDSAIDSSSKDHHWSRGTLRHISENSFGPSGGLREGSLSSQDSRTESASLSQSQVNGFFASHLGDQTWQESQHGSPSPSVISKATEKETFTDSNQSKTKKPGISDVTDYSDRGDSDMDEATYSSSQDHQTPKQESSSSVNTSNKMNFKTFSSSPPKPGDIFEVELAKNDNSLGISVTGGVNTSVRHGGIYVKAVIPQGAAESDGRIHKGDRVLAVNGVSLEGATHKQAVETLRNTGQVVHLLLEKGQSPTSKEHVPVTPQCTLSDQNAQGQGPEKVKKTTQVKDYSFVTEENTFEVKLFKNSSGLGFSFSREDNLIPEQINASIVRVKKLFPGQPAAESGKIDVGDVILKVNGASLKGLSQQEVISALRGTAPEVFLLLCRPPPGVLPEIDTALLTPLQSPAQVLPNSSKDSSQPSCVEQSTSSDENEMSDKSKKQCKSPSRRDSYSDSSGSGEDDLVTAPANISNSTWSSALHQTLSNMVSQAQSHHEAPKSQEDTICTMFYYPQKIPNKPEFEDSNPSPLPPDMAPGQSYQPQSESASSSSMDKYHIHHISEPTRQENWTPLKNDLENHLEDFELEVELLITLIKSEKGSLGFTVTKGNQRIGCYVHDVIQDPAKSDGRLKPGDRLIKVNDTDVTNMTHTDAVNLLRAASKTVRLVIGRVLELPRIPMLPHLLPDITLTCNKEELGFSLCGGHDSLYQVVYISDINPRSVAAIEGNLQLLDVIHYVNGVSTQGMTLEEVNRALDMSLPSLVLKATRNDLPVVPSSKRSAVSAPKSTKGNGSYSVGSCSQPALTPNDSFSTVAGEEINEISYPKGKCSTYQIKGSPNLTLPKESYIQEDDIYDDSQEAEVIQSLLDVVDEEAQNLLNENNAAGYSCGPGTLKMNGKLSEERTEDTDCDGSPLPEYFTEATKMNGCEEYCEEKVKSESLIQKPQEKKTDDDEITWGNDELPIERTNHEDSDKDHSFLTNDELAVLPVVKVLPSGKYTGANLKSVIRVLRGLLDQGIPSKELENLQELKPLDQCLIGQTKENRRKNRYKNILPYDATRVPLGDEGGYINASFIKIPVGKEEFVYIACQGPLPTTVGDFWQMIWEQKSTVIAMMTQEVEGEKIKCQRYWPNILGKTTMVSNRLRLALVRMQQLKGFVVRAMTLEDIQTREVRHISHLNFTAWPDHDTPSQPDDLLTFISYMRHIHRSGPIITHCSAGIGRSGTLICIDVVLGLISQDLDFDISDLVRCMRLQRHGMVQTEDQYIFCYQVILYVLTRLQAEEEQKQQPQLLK

Take `CC(C)C[C@H](NC(=O)[C@H](Cc1c[nH]c2ccccc12)NC(=O)[C@H](Cc1c[nH]cn1)NC(=O)[C@H](CCCNC(=N)N)NC(=O)[C@H](CC(C)C)NC(=O)[C@@H](NC(=O)[C@H](Cc1ccccc1)NC(=O)[C@H](CCC(N)=O)NC(=O)[C@H](CCCNC(=N)N)NC(=O)[C@@H](NC(=O)[C@H](CCC(=O)O)NC(=O)CNC(=O)[C@H](CCCNC(=N)N)NC(=O)[C@H](CC(=O)O)NC(=O)[C@@H](NC(=O)[C@H](CC(C)C)NC(=O)[C@H](CCC(=O)O)NC(=O)[C@H](CCCNC(=N)N)NC(=O)CCCC[C@@H]1SC[C@@H]2NC(=O)N[C@@H]21)C(C)C)C(C)C)[C@@H](C)O)C(=O)N[C@@H](CCCCN)C(=O)N[C@H](C(=O)O)C(C)C` [Dopamine transporter (Na+-dependent)] (Biotin-RELVDRGEVRQFTLRHWLKV-OH; C-terminus assumed): the Classification was 3 (A450 nm 2-3) in test [1] (PDZ PTPL-1, PDZ Domain 4); 3 (A450 nm 2-3) in test [2] (PDZ KIAA1634, PDZ Domain 1); 5 (A450 nm of 4 more than 2× repeated) in test [3] (setting [4]).
Take `CC[C@H](C)[C@H](NC(=O)[C@H](Cc1c[nH]cn1)NC(=O)[C@H](C)NC(=O)[C@H](C)NC(=O)[C@H](CO)NC(=O)[C@@H]1CCCN1C(=O)[C@H](CCCNC(=N)N)NC(=O)[C@H](CC(=O)O)NC(=O)[C@H](CCCCN)NC(=O)[C@@H]1CCCN1C(=O)[C@H](CC(=O)O)NC(=O)[C@H](CCC(=O)O)NC(=O)CCCC[C@@H]1SC[C@@H]2NC(=O)N[C@@H]21)C(=O)N[C@H](C(=O)N[C@@H](CCC(=O)O)C(=O)N[C@@H](C)C(=O)N[C@@H](CC(C)C)C(=O)N[C@@H](CCC(=O)O)C(=O)N[C@H](C(=O)N[C@@H](CC(=O)O)C(=O)N[C@H](C(=O)O)C(C)C)[C@@H](C)O)C(C)C` [PDZ-binding kinase (PBK)] (Biotin-EDPKDRPSAAHIVEALETDV-OH; C-terminus assumed): the Classification in test [1] (PDZ PTPL-1, PDZ Domain 2) was 4 (A450 nm 3-4); in test [2] (PDZ KIAA1634, PDZ Domain 2) it was 3 (A450 nm 2-3); in test [3] (PDZ BAI-1, PDZ Domain 3), 1 (A450 nm 0-1).
For the molecule `CC(C)C[C@H](NC(=O)CNC(=O)[C@@H](NC(=O)[C@H](CO)NC(=O)[C@H](CC(N)=O)NC(=O)[C@H](Cc1ccccc1)NC(=O)CNC(=O)[C@H](C)NC(=O)[C@H](C)NC(=O)[C@H](Cc1ccccc1)NC(=O)[C@@H](NC(=O)CCCC[C@@H]1SC[C@@H]2NC(=O)N[C@@H]21)[C@@H](C)O)[C@@H](C)O)C(=O)N1CCC[C@H]1C(=O)N[C@@H](Cc1c[nH]cn1)C(=O)N[C@@H](CO)C(=O)N[C@H](C(=O)N[C@H](C(=O)N[C@@H](CCCNC(=N)N)C(=O)N[C@H](C(=O)O)C(C)C)[C@@H](C)O)[C@@H](C)O` [Neuroligin] (Biotin-TFAAGFNSTGLPHSTTRV-OH; C-terminus assumed), the Classification is reported as 1 (A450 nm 0-1) in test [1] (PDZ PTPL-1, PDZ Domain 2); 1 (A450 nm 0-1) in test [1] (PDZ PTPL-1, PDZ Domain 4); 4 (A450 nm 3-4) in test [2] (PDZ KIAA1634, PDZ Domain 1); 2 (A450 nm 1-2) in test [2] (PDZ KIAA1634, PDZ Domain 2); 2 (A450 nm 1-2) in test [3] (PDZ SHANK, PDZ Domain 1).
Turning to `CC[C@H](C)[C@H](NC(=O)[C@H](CCC(=O)O)NC(=O)[C@H](CC(N)=O)NC(=O)[C@H](CCCNC(=N)N)NC(=O)[C@H](Cc1ccccc1)NC(=O)[C@H](CC(N)=O)NC(=O)[C@H](CO)NC(=O)[C@H](CC(N)=O)NC(=O)[C@H](CCC(=O)O)NC(=O)[C@H](CO)NC(=O)[C@H](CC(=O)O)NC(=O)[C@H](CO)NC(=O)[C@@H](NC(=O)[C@@H](NC(=O)[C@H](CC(=O)O)NC(=O)[C@H](CCCCN)NC(=O)CCCC[C@@H]1SC[C@@H]2NC(=O)N[C@@H]21)[C@@H](C)CC)[C@@H](C)O)C(=O)N[C@@H](CCC(N)=O)C(=O)N[C@@H](CO)C(=O)N[C@@H](CC(C)C)C(=O)N[C@H](C(=O)O)C(C)C` [CD95] (Biotin-KDITSDSENSNFRNEIQSLV-OH; C-terminus assumed), the Classification in test [1] (PDZ PTPL-1, PDZ Domain 2) is reported as 3 (A450 nm 2-3); in test [1] (PDZ PTPL-1, PDZ Domain 4), 1 (A450 nm 0-1); in test [2] (PDZ KIAA1634, PDZ Domain 1), 1 (A450 nm 0-1); in test [2] (PDZ KIAA1634, PDZ Domain 2), 1 (A450 nm 0-1); in test [2] (PDZ KIAA1634, PDZ Domain 4), 1 (A450 nm 0-1); in test [3] (PDZ BAI-1, PDZ Domain 5), 3 (A450 nm 2-3).
On to `CC(C)C[C@H](NC(=O)[C@H](CC(=O)O)NC(=O)[C@H](CO)NC(=O)[C@H](CCC(=O)O)NC(=O)CNC(=O)[C@H](Cc1ccc(O)cc1)NC(=O)[C@H](CC(C)C)NC(=O)[C@H](C)NC(=O)[C@H](CO)NC(=O)[C@H](CO)NC(=O)[C@H](Cc1ccccc1)NC(=O)[C@H](C)NC(=O)[C@H](C)NC(=O)[C@H](Cc1ccc(O)cc1)NC(=O)[C@H](CC(=O)O)NC(=O)[C@H](CC(C)C)NC(=O)[C@H](C)NC(=O)CNC(=O)[C@@H]1CCCN1C(=O)[C@@H](NC(=O)CCCC[C@@H]1SC[C@@H]2NC(=O)N[C@@H]21)C(C)C)C(=O)O` [a-actinin 2] (Biotin-VPGALDYAAFSSALYGESDL-OH; C-terminus assumed), for which the Classification in test [1] (PDZ PTPL-1, PDZ Domain 2) is reported as 1 (A450 nm 0-1); in test [2] (PDZ KIAA1634, PDZ Domain 5), 5 (A450 nm of 4 more than 2× repeated); in test [3] (PDZ BAI-1, PDZ Domain 2), 1 (A450 nm 0-1); in test [3] (PDZ BAI-1, PDZ Domain 6), 5 (A450 nm of 4 more than 2× repeated); in test [3] (PDZ LIM Protein, PDZ Domain 1), 4 (A450 nm 3-4); in test [3] (PDZ Novel PDZ, PDZ Domain 1), 2 (A450 nm 1-2). Besides, the Classification in test [3] (PDZ SHANK, PDZ Domain 1) was 1 (A450 nm 0-1).
Regarding “SLKPGTVLPPPPYRHRNTVV (Biotin-SLKPGTVLPPPPYRHRNTVV) [ErbB-4 receptor]”, the Classification is 2 (A450 nm 1-2) in test [1] (PDZ PTPL-1, PDZ Domain 2); 1 (A450 nm 0-1) in test [2] (PDZ KIAA1634, PDZ Domain 2); 1 (A450 nm 0-1) in test [3] (PDZ BAI-1, PDZ Domain 3).
Consider “PYSELNYETSHYPASPDSWV (Biotin-PYSELNYETSHYPASPDSWV) [catenin - delta 2]”, for which the Classification in test [1] (PDZ PTPL-1, PDZ Domain 2) is given as 5 (A450 nm of 4 more than 2× repeated); in test [1] (PDZ PTPL-1, PDZ Domain 4), 1 (A450 nm 0-1); in test [2] (PDZ KIAA1634, PDZ Domain 5), 3 (A450 nm 2-3); in test [3] (PDZ BAI-1, PDZ Domain 3), 1 (A450 nm 0-1); in test [3] (setting [4]), 1 (A450 nm 0-1).
For `CC(C)C[C@H](NC(=O)[C@H](CC(C)C)NC(=O)[C@@H](NC(=O)[C@H](CC(=O)O)NC(=O)CCCC[C@@H]1SC[C@@H]2NC(=O)N[C@@H]21)[C@@H](C)O)C(=O)N[C@@H](CC(C)C)C(=O)N[C@H](C(=O)N[C@@H](CCC(=O)O)C(=O)N[C@@H](CC(N)=O)C(=O)N[C@@H](CCC(=O)O)C(=O)NCC(=O)N[C@@H](CC(=O)O)C(=O)N[C@@H](CCCCN)C(=O)N[C@H](C(=O)N[C@@H](CCC(=O)O)C(=O)N[C@@H](CCC(=O)O)C(=O)N[C@@H](CCC(N)=O)C(=O)N[C@H](C(=O)N[C@@H](CO)C(=O)N[C@@H](Cc1ccc(O)cc1)C(=O)N[C@H](C(=O)O)C(C)C)C(C)C)[C@@H](C)O)[C@@H](C)O` [5H2B_HUMAN] (Biotin-DTLLLTENEGDKTEEQVSYV-OH; C-terminus assumed), the Classification was 5 (A450 nm of 4 more than 2× repeated) in test [1] (PDZ PTPL-1, PDZ Domain 2); 2 (A450 nm 1-2) in test [1] (PDZ PTPL-1, PDZ Domain 4); 5 (A450 nm of 4 more than 2× repeated) in test [2] (PDZ KIAA1634, PDZ Domain 2); 4 (A450 nm 3-4) in test [3] (PDZ BAI-1, PDZ Domain 3); 1 (A450 nm 0-1) in test [3] (setting [4]).
